The results in this text go back to publication PMC4955970, “Stable, synthetic analogs of diadenosine tetraphosphate inhibit rat and human P2X3 receptors and inflammatory pain” (Molecular Pain, 2016).

“Also recorded” adds a separate entry of the source.

The inhibition is the relative decrease from the control value, in per cent.

Experiment [1] deals with T1, rat P2X7 receptors (Rattus norvegicus, UniProt Q64663).
T1 construct: expressed in transfected cells; host or cells: HEK293
T1 sequence (Q64663 1-595): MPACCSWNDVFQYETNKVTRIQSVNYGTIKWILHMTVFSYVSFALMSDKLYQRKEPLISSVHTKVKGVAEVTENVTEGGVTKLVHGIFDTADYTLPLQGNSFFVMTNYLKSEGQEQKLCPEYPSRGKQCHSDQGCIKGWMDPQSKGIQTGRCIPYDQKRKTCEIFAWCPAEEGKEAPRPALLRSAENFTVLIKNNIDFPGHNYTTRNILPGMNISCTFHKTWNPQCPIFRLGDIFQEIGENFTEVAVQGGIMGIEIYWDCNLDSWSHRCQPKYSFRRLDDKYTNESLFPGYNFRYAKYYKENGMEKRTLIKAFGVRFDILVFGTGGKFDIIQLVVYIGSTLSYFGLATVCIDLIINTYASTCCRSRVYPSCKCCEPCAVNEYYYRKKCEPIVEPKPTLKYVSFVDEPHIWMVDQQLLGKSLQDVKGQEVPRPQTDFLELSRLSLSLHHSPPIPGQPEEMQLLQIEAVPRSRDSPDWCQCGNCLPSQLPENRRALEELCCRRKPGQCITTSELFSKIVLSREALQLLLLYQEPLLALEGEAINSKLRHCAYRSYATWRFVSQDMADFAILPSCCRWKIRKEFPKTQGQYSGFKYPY
Nature of the experiment: Whole-cell patch clamp on HEK293 cells expressing rat P2X7 receptors (ATP-induced currents). It counts as cell-based. Conditions: 1 µM; 10 µM ATP every 2 min.

Experiment [2] deals with T2, native P2X3Rs in DRG neurons (Rattus norvegicus, UniProt P49654).
T2 construct: effects of AppNHppA on native P2X3Rs in TG, DRG, and NG neurons were investigated; endogenous in cells; host or cells: cultured rat trigeminal ganglion (TG) or dorsal root ganglion (DRG) neurons
T2 sequence (P49654 1-397): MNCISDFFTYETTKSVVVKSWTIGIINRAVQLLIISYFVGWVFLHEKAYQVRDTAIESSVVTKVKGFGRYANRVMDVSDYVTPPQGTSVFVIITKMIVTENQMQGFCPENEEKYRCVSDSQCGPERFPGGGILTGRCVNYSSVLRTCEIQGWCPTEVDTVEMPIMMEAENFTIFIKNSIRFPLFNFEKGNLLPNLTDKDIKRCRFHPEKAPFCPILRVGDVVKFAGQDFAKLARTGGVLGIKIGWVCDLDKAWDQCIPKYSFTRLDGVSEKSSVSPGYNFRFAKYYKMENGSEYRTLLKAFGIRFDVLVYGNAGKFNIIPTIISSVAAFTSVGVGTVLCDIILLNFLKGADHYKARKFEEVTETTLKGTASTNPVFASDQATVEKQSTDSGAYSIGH
T2 sequence (P49653 1-472 partner): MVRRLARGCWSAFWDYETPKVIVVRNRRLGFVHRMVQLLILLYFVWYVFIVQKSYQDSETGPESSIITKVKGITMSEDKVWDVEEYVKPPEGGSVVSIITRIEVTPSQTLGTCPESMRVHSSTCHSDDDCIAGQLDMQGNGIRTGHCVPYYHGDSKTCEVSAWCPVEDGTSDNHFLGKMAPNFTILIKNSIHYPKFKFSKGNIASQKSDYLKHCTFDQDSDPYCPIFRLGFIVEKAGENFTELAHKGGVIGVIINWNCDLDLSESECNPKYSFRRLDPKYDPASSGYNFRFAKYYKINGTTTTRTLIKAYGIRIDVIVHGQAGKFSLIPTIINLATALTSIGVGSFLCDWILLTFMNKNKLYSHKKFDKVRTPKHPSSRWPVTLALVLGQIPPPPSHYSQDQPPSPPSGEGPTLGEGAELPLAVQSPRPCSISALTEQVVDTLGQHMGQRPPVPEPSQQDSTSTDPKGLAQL
Nature of the experiment: Whole-cell recording of α,β-meATP currents in cultured dorsal root ganglion (DRG) neurons. It counts as cell-based. Conditions: DRG neuron, read-out: inhibition of sustained residual component in DRG neurons. On the procedure: Rat trigeminal, nodose, or dorsal root ganglion (TG, NG, and DRG, respectivley) neurons in culture were prepared as described previously.[46],[47] Neurons were plated on poly-L-lysine (0.2 mg/ml)-coated Petri dishes and cultured for one to two days under an atmosphere containing 5% CO2. Cells were used within two days of plating when they lacked processes. HEK293T cells were prepared as reported previously[32],[48] and transfected with rat or human full-length P2X3 cDNA subcloned into pIRES2-EGFP (Clontech, Mountain View, CA, USA).
TG, NG, DRG, or HEK cells were recorded in the whole-cell configuration while being continuously superfused (at 2 ml/min) with control solution containing (in mM): 152 NaCl, 5 KCl, 1 MgCl2, 2 CaCl2, 10 glucose, and 10 HEPES; pH was adjusted to 7.4 with NaOH and osmolarity was adjusted to 320 mOsM with glucose. […] Responses to selective P2X3R agonist α,β-methylene-ATP (α,β-meATP; resistant to ectoATPase hydrolysis, Sigma-Aldrich) were measured using an EPC-9 amplifier operated by HEKA Patch Master software (HEKA Electronik, Germany). Cells were voltage-clamped at −70 mV. In most cells, series resistance was compensated by 80%. To determine EC50 values, dose-response curves were constructed for α,β-meATP by administering different agonist doses same cells and fitting data to a logistic equation (Origin 8.0, Microcal, Northampton, MA). […]

As to `Nc1ncnc2c1ncn2[C@@H]1O[C@H](COP(=O)(O)OP(=O)(O)NP(=O)(O)OP(=O)(O)OC[C@H]2O[C@@H](n3cnc4c(N)ncnc43)[C@H](O)[C@@H]2O)[C@@H](O)[C@H]1O` [AppNHppA, diadenosine 5′,5′′′-P^1,P^4-(β,γ-imido)tetraphosphate], the “HAD or partial agonism effect on P2X7R-mediated currents” value in experiment [1] was “did not produce any HAD or partial agonism effects; also recorded: does not inhibit”. The inhibition at 1 µM in experiment [2] worked out at 18 ± 6%.
